In patent US9969741B2, “Pyrazolotriazines as inhibitors of nucleases” (MASARYKOVA UNIVERZITA, priority 2014, dated 2018) one finds IC50 data, which are given here for three molecules.

A value given as a limit tells only on which side of the number the result lay.

The target in this assay is T1, EXO1 (Homo sapiens, UniProt Q9UQ84).
T1 construct: made in house; host or cells: Escherichia coli BL21 (RIPL)
T1 sequence (Q9UQ84 1-846): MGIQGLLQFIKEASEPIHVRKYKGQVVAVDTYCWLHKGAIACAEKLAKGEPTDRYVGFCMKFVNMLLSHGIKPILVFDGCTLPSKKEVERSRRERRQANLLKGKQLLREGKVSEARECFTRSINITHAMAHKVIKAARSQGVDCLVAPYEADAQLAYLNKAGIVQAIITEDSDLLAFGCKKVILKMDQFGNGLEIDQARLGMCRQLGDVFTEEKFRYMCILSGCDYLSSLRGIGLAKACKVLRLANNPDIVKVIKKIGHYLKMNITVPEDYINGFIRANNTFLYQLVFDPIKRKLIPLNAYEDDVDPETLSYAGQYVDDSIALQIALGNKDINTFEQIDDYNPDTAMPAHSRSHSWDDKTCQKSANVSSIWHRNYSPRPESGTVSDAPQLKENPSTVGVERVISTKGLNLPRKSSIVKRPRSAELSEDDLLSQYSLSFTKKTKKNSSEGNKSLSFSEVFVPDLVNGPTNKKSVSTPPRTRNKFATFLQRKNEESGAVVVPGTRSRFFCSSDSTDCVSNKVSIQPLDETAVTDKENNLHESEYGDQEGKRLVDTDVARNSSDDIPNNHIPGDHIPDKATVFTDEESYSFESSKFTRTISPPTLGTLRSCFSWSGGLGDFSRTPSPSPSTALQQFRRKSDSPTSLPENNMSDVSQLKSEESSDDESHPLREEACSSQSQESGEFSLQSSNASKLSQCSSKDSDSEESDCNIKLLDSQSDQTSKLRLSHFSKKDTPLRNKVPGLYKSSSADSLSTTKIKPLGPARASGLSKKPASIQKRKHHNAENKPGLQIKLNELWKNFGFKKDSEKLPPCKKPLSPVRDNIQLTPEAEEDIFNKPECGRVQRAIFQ
As to the kind of experiment: Nuclease inhibition assay, EXO1 (3′ OH fluorescent DNA substrate, gel readout). The following applies: 5 nM enzyme, 5 nM 3′ OH substrate, 15 min at 30° C. The format is biochemical. The text has this:
In vitro assays were used for the determination of compound's IC50 values for inhibition of individual nucleases, i.e., MUS81/EME1, FEN1, EXO1, and MRE11. To generate IC50 values, concentration of compound was plotted against relative nuclease activity (in %). The dose-response curves were generated from inhibition data, from 5 point serial dilutions of inhibitory compounds, each in triplicate and fitted to a standard sigmoid curve. IC50 values were derived by standard nonlinear regression analysis.
All tested compounds were diluted in 100% DMSO (dimethylsulfoxide) to prepare working stocks with different concentrations. To keep the DMSO concentration constant in every reaction, always 0.5 μl of the compound stock was added to the reaction buffer. The reaction buffer differs depending on the enzyme tested. Also concentration of the compounds in the reaction depends on the particular enzyme, since the inhibitory effect of the compounds vary between the enzymes. Nevertheless, always doubling dilutions in the range 200-0.8 μM was used. The compound was added as the first component in the reaction buffer, followed by the enzyme addition. […]
For this experiment we prepared short fluorescently labeled oligonucleotide-based DNA substrates with specific structures reflecting the biochemical activities of tested individual nucleases (Table 1). […] For visualization, each substrate was labeled by fluorescent dye (fluorescein), which can be detected in the gel using appropriate imaging system (FLA-9000, Fuji) with filters for particular wavelengths (excitation: 485 nm, emission: 535 nm).
Nuclease assays were performed in reaction buffer specific for particular enzyme: MUS81/EME1 (50 mM Tris pH=7.5, 5 mM MgCl2, 1 mM DTT a 100 μg/ml BSA), MRE11 (30 mM Bis-Tris pH=7.0, 50 μg/ml BSA, 1 mM DTT a 250 μM MnCl2), EXO1 and FEN1 (50 mM Tris pH=7.5, 1 mM MgCl2, 1 mM DTT a 100 μg/ml BSA). […] Fluorescently labeled DNA was detected by FLA-9000 scanner (Fuji) and the result was evaluated using Multi-Gauge V3.2 software (Fuji). […]
One may read the IC50 as the concentration that gives 50% inhibition. A higher IC50 goes with lower potency. Molecule `CCc1nn2c(N)c(-c3nc4ccccc4[nH]3)nnc2c1-c1ccc(F)cc1` [Preparative Example 5A] yielded an IC50 of over 50 µM.

`Nc1c(-c2nc3ccccc3[nH]2)nnc2cc(-c3ccccc3)nn12` [Preparative Example 5C] displayed an IC50 of over 50 µM. `Nc1c(-c2nc3ccccc3[nH]2)nnc2cc(-c3cccc4ccccc34)nn12` [Preparative Example 5K] gave an IC50 of over 50 µM.
